Assay results taken from patent publication US8153635B2, “Compounds and compositions as modulators of GPR119 activity” (IRM LLC, priority 2007, dated 2012).

The compounds below were run against T1, human GPR119 (Homo sapiens, UniProt Q8TDV5) (assay: Cyclic AMP assay in CHO-hGPR119 cells (HTRF)). Settings: increase in intracellular cAMP; GPR119-transfected CHO cells.
T1 construct: expressed in transfected cells; host or cells: Flp-In-CHO cells (Invitrogen, Cat.# R758-07), stably transfected with hGPR119 in pcDNA5/FRT plus pOG44
T1 sequence (Q8TDV5 1-335): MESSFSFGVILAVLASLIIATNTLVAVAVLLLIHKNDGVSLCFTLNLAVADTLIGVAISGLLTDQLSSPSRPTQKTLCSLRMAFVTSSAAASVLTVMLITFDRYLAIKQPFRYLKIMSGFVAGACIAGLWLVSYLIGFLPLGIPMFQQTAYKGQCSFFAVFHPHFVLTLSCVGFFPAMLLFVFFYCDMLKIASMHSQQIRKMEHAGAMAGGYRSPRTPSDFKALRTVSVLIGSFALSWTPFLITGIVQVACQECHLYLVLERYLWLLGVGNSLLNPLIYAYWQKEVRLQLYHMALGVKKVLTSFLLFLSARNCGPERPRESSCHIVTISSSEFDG
Type: cell-based
Experimental: Flp-In-CHO cells (Invitrogen, Cat.# R758-07) are maintained in Ham's F12 medium supplemented with 10% fetal bovine serum, 1% antibiotic mixture and 2 mM L-glutamine. The cells are transfected with a DNA mixture containing human GPR119 (hGPR119) or mouse GPR119 (mGPR119) in the pcDNA5/FRT vector (Invitrogen) and the pOG44 vector (Invitrogen) in a 1:9 ratio using Fugene6 (Roche), according to the manufacturer's instructions. After 48 hours, the medium is changed to medium supplemented with 400 μg/mL hygromycin B to initiate the selection of stably transfected cells. The resultant cell lines are designated CHO-hGPR119 and CHO-mGPR119 respectively.
To test the activity of compounds of the invention on human GPR119, CHO-hGPR119 cells are harvested and resuspended at 300,000 cells/mL in assay media (Ham's F12 medium plus 3% lipid-depleted fetal bovine serum, 1 mM 3-isobutyl-1-methyl-xanthine (IBMX)). Cells (5 μl) are placed in each well of a white 1536-well plate. A compound of the invention (50 nL) diluted in 100% dimethyl sulfoxide (DMSO) is added to each well and the plates are incubated at 37° C. for 30 minutes. cAMP concentrations are then measured using the cAMP dynamic 2 kit (Cisbio Bioassays) according to the manufacturer's instructions. 2.5 μL of diluted cAMP-XL665 is added to each well, followed by 2.5 μL diluted anti-cAMP-Cryptate. The plate is covered and incubated for one hour at room temperature, then read on an Envision plate reader (Perkin Elmer) using the HTRF method with excitation at 337 nm, and emissions measured at 620 nm and […].

Compound	EC50 [nM]
CC(C)c1nc(N2CCC(COc3ccc(C4=CCN(S(C)(=O)=O)CC4)cc3)CC2)no1 [Example J7]	< 200
CS(=O)(=O)N1CCC(C(=O)O)(c2ccc(OCC3CCN(c4ncc(F)cn4)CC3)cc2)CC1 [Example T1, 4-(4-((1-(5-fluoropyrimidin-2-yl)piperidin-4-yl)methoxy)phenyl)-1-(methylsulfonyl)piperidine-4-carboxylic acid]	200 to 800
CC(C)(C)OC(=O)N1CCC(COc2cnc(N3CCCN(S(C)(=O)=O)CC3)cn2)CC1 [Example G1, tert-Butyl 4-((5-(4-(methylsulfonyl)-1,4-diazepan-1-yl)pyrazin-2-yloxy)methyl)piperidine-1-carboxylate]	> 800
CS(=O)(=O)N1CCC(c2ccc(OCC3CCN(c4ccc(Cl)cn4)CC3)cc2)CC1 [Example J22]	< 200
CC(C)OC(=O)N1CCC(COc2ccc(N3CCN(S(C)(=O)=O)CC3)nn2)CC1 [Example C2, Isopropyl 4-((6-(4-(methylsulfonyl)piperazin-1-yl)pyridazin-3-yloxy)methyl)piperidine-1-carboxylate]	> 800
CC1(OC(=O)N2CCC(COc3cnc(N4CCC(S(C)(=O)=O)CC4)cn3)CC2)CC1 [Example G4, 1-Methylcyclopropyl 4-((5-(4-(methylsulfonyl)piperidin-1-yl)pyrazin-2-yloxy)methyl)piperidine-1-carboxylate]	< 200
CC1(OC(=O)N2CCC(COc3cnc(N4CC(NS(C)(=O)=O)C4)cn3)CC2)CC1 [Example U5, 1-Methylcyclopropyl 4-((5-(3-(methylsulfonamido)azetidin-1-yl)pyrazin-2-yloxy)methyl)piperidine-1-carboxylate]	< 200
CC1(OC(=O)N2CCC(COc3cnc(N4CCN(S(=O)(=O)[C@@H]5CCNC5)CC4=O)cn3)CC2)CC1 [Example O41]	< 200
CC1(OC(=O)N2CCC(COc3cnc(N4CCN(S(=O)(=O)CCCN5CCC5)CC4=O)cn3)CC2)CC1 [Example O9]	< 200

Next, values leading:

EC50 [nM]	Compound
200 to 800	CC(C)OC(=O)N1CCC(CCc2ccc(N3CCN(S(C)(=O)=O)CC3)nc2)CC1 [Example D2, Isopropyl 4-(2-(6-(4-(methylsulfonyl)piperazin-1-yl)pyridin-3-yl)ethyl)piperidine-1-carboxylate]
< 200	CC(C)c1noc(N2CCC(CCc3ncc(N4CCN(S(C)(=O)=O)CC4)s3)CC2)n1 [Example I1, 3-Isopropyl-5-(4-(2-(5-(4-(methylsulfonyl)piperazin-1-yl)thiazol-2-yl)ethyl)piperidin-1-yl)-1,2,4-oxadiazole]
< 200	CC1(OC(=O)N2CCC(COc3cnc(N4CCN(S(C)(=O)=O)CC4)cn3)CC2)CC1 [Example E3, 1-Methylcyclopropyl 4-((5-(4-(methylsulfonyl)piperazin-1-yl)pyrazin-2-yloxy)methyl)piperidine-1-carboxylate]
> 800	CC(C)OC(=O)N1CCC(CCCOc2ccc(N3CCN(S(C)(=O)=O)CC3)cc2)CC1 [Example A3]
< 200	CCc1cnc(N2CCC(Oc3ccc4c5c(oc4c3)CN(S(C)(=O)=O)CC5)CC2)nc1 [Example V5, 7-(1-(5-Ethylpyrimidin-2-yl)piperidin-4-yloxy)-2-(methylsulfonyl)-1,2,3,4-tetrahydrobenzofuro[2,3-c]pyridine]
200 to 800	CC(C)c1noc(N2CCC(COc3ccc(N4CCN(S(C)(=O)=O)CC4)cn3)CC2)n1 [Example E9, 3-Isopropyl-5-(4-((5-(4-(methylsulfonyl)piperazin-1-yl)pyridin-2-yloxy)methyl)piperidin-1-yl)-1,2,4-oxadiazole]
< 200	CCc1cnc(N2CCC(CCCc3nc(N4CCN(S(C)(=O)=O)CC4)no3)CC2)nc1 [Example H3, 5-(3-(1-(5-Ethylpyrimidin-2-yl)piperidin-4-yl)propyl)-3-(4-(methylsulfonyl)piperazin-1-yl)-1,2,4-oxadiazole]
